According to patent US8193353B2, “6-1H-imidazo-quinazoline and quinolines derivatives, new potent analgesics and anti-inflammatory agents” (Rottapharm S.p.A, priority 2006, dated 2012):
Where two headings read alike, the source gives them in different places.

How the values were obtained:
[1] = tested on: CFA-induced prolonged inflammation; test: CFA model of chronic inflammatory pain; assay type: in vivo, rat; conditions: for ED50: Rattus norvegicus, ip; for ED50 / ED100 0.5 hrs: calculated from MPE data at 0.5 hrs; for ED100 0.5 hrs: i.p.
[2] = tested on: mechanical hyperalgesia associated with STZ-induced diabetes; test: STZ-induced diabetes mechanical hyperalgesia (neuropathic pain); assay type: in vivo, rat; conditions: for ED50: Rattus norvegicus, ip, read-out: ED50 0.5 hrs; for ED100 0.5 hrs: i.p.
Description: Painful diabetic neuropathy is one of the most common complications of insulin-dependent diabetes in man; in particular, diabetes can be associated with neuropathic pain which fails to be treated by classical analgesics. Streptozotocin (STZ)-induced diabetes in the rat has been increasingly used as a model of painful diabetic neuropathy to assess the efficacies of potential analgesic agents (C. Courteix, Pain 1993, 53, 81-8). The compounds of the invention were tested for efficacy in reducing mechanical hyperalgesia associated with STZ-induced diabetes in the rat, according to the experimental model as described by the literature. Diabetes was produced with the injection of a single dose (75 mg/Kg i.p.) of STZ. In the following four weeks after the induction of diabetes the clinical symptoms (weight, body and skin temperature, motility and hyperglycemia) progressively developed by the animals, are strictly monitored. After four weeks, the scores obtained in diabetic rats to various pain stimuli (in particular mechanical stimuli) were greater than those in normal rats, indicating hyperalgesia. The hyperalgesia induced by diabetes was evaluated using the Randall-Selitto method as above described, and quantitated using the analgesimeter. Also in this case, the difference in the mechanical pain threshold between the basal value (generally 230-250 g) and the one tolerated by the animals treated with the drug, is defined as mechanical hyperalgesia. The compounds of the invention were administered i.p. (solution, Tween 80, 10% in saline) at different doses, and mechanical hyperalgesia was measured at the reported time, as maximum percent effect (MPE) which represents the difference (%) in pain threshold between the animals treated with the drug and the controls that received only the vehicle, compared with the weight borne by naïf non-diabetic controls. A 100% protection means that the diabetic animals treated with the compound can tolerate the same stimulus (weight) as the naïf non-diabetic animals. MPE higher than 100% means that the diabetic animal treated with the compound can tolerate stimuli (weight) higher than the control non-diabetic animals (hypoalgesia).
In particular, from the MPE data at 0.5 hrs, the doses yielding a protection of 50% (ED50) and 100% (ED100) have been calculated.

[3] = tested on: Zymosan-induced mechanical hyperalgesia; test: Zymosan-induced mechanical hyperalgesia (Randall-Selitto), inflammatory pain; assay type: in vivo, rat; conditions: for ED50: Rattus norvegicus, read-out: Analgesia ED50
Description: (§1) The interplantar injection of Zymosan-induced mechanical hyperalgesia was used as a model of inflammatory pain (Meller, Neuropharmacology, 1994, 33, 1471-1478). In this model, typically a male Sprague-Dawley or Wistar rat (200-250 g) receives an interplantar injection of 3 mg/100 μl zymosan into one hind paw. A marked inflammation occurs in this hind paw. Drugs are administered orally for evaluation of efficacy, 30 min. before the inflammatory insult. The hyperalgesia induced by zymosan administration was evaluated using the Randall-Selitto method (Arch. Int. Pharmacodyn., 1957, 111, 409). The quantitation of the analgesic effect is achieved by an analgesimeter, which consist in applying to the inflamed paw an increasing weight (from 130-140 g up to 500 g). The difference in the mechanical pain threshold between the basal value (generally 230-250 g) and the one tolerated by the animals treated with the drug, determined 4 hours after the inflammatory challenge, is defined as mechanical hyperalgesia. Mechanical hyperalgesia is expressed for the compounds of the invention as ED50, which is the dose of the administered compound able to increase the pain threshold by 50% in comparison with the group of control animals. The corresponding ED100, representing the dose able of reducing of 100% the pain threshold, can be calculated for those cases where there is a linear dose-response relationship. In vivo anti-inflammatory effect exerted by the compound of the invention can be assessed in the same Zymosan induced inflammation test described above, by measuring the volume of the oedema induced by the inflammatory agent. The oedema was evaluated as the increase in the volume of the Zymosan injected paw within a time of 0-2 hrs. The measurements of the variation of the oedema volume of the paw were recorded using hydroplethysmometer, which consists of two plastic cuvettes containing a surfactant liquid, the larger one being used for immersion of the paw, connected to the smaller one which contains a transducer capable of recording small displacements of the volume used for the measure. The paw is immersed in the cuvettes up to the tibiotarsal joint. The volume of the liquid displaced is proportional to the extent of the inflammation. The efficacy of the compounds of the invention in preventing oedema formation is expressed as ED30, is measured 2 hours after the inflammatory challenge, and represents the dose able of reducing of 30%, the Zymosan induced paw volume increase in comparison to control animals (animals treated with Zymosan but treated with only distilled water instead of the testing compound). The corresponding ED50, representing the dose able of reducing of 50% the Zymosan induced paw volume increase, can be calculated for those cases where there is a linear dose-response relationship. In both the experiments, for each test compound, at least three doses were used, with 10 animals per group. Compounds of the invention were tested at 10, 20 and 40 mg/Kg.

[4] = tested on: Zymosan induced paw volume increase; test: Zymosan-induced paw oedema; assay type: in vivo, rat; conditions: oral, 2 hours after challenge
Description: as §1

IL-1β = IL-1β production in IL-1 stimulated human chondrosarcoma cell line; assay type: cell-based
Source text: (§2) The compounds of the invention have been found effective in interfering with COX-2 and cytokines production, in several cell lines; examples of these effects are reported in Table 3, for COX-2 and IL-1β and IL-6 cytokines, in IL-1 stimulated human chondrosarcoma cell line.

IL-6 = IL-6 production in IL-1 stimulated human chondrosarcoma cell line; assay type: cell-based
Source text: as §2

COX-2 = COX-2 production in IL-1 stimulated human chondrosarcoma cell line; assay type: cell-based; conditions: for inhibition at 0.3 µM / inhibition at 1 µM / inhibition at 10 µM: Homo sapiens
Source text: as §2

[5] = oral, 30 min before zymosan, 4 hours after challenge
[6] = calculated from MPE data at 0.5 hrs

CN1C(C(=O)Nc2ccccn2)=C(O)c2ccccc2S1(=O)=O [Piroxicam, reference compound]
MPE 0.5 hrs. ([1]; 30 mg/kg i.p.): 102%
MPE 1.5 hrs. ([1]; 30 mg/kg i.p.): 111%
MPE 3 hrs. ([1]; 30 mg/kg i.p.): 54%
MPE 6 hrs. ([1]; 30 mg/kg i.p.): 24%
MPE 24 hrs. ([1]; 30 mg/kg i.p.): 38%

CN(C)CCC=C1c2ccccc2CCc2ccccc21 [Amitriptyline, reference compound]
MPE 0.5 hrs. ([2]; 3 mg/kg i.p.): 44%
MPE 1.5 hrs. ([2]; 3 mg/kg i.p.): 40%
MPE 3 hrs. ([2]; 3 mg/kg i.p.): 5%
MPE 0.5 hrs. ([2]; 10 mg/kg i.p.): 68%
MPE 1.5 hrs. ([2]; 10 mg/kg i.p.): 77%
MPE 0.5 hrs. ([2]; 30 mg/kg i.p.): 65%
MPE 1.5 hrs. ([2]; 30 mg/kg i.p.): 69%
MPE 3 hrs. ([2]; 30 mg/kg i.p.): 23%

Cc1ccc(-c2cc(C(F)(F)F)nn2-c2ccc(S(N)(=O)=O)cc2)cc1 [Celecoxib]
ED50 [3, 5]: 9 mg/kg
Analgesia ED100 [3, 5]: 1172 mg/kg
Oedema Reduction ED30 [4]: 13.8 mg/kg

COc1cccc(C2(O)CCCCC2CN(C)C)c1 (stereo not drawn) [Tramadol, reference compound]
MPE 0.5 hrs. ([2]; 3 mg/kg i.p.): 26%
MPE 1.5 hrs. ([2]; 3 mg/kg i.p.): 53%
MPE 3 hrs. ([2]; 3 mg/kg i.p.): 7%
MPE 0.5 hrs. ([2]; 10 mg/kg i.p.): 58%
MPE 1.5 hrs. ([2]; 10 mg/kg i.p.): 48%
MPE 3 hrs. ([2]; 10 mg/kg i.p.): 27%
MPE 0.5 hrs. ([2]; 30 mg/kg i.p.): 54%
MPE 1.5 hrs. ([2]; 30 mg/kg i.p.): 64%
MPE 3 hrs. ([2]; 30 mg/kg i.p.): 23%
MPE 0.5 hrs. ([2]; 50 mg/kg i.p.): 81%
MPE 1.5 hrs. ([2]; 50 mg/kg i.p.): 60%
MPE 3 hrs. ([2]; 50 mg/kg i.p.): 43%
ED50 ([2]; 0.5 h): 10.9 mg/kg
ED100 0.5 hrs ([2]; extrapolated from a dose-response curve approaching the 100% protection): 251 mg/kg
ED50 [3]: 25.7 mg/kg
Analgesia ED100 [3, 5]: 405 mg/kg

c1cn(-c2ccc3nc(-c4ccc5c(c4)OCCO5)ncc3c2)cn1 [Example 5]
inhibition at 0.3 µM (IL-1β): 20%
inhibition at 1 µM (IL-1β): 30%
inhibition at 10 µM (IL-1β): 40%
inhibition at 10 µM (IL-6; 10 μM): 35%
inhibition at 0.3 µM (COX-2): 50%
inhibition at 1 µM (COX-2): 60%
inhibition at 10 µM (COX-2): 70%

c1ccc(-c2ncc3cc(-n4ccnc4)ccc3n2)cc1 [Example 1, [2-phenyl-6-(1H-imidazol-1-yl)]quinazoline]
inhibition at 0.3 µM (IL-1β): 10%
MPE 0.5 hrs. ([2]; 3 mg/kg i.p.): 24%
MPE 0.5 hrs. ([2]; 10 mg/kg i.p.): 41%
MPE 1.5 hrs. ([2]; 10 mg/kg i.p.): 68%
MPE 0.5 hrs. ([2]; 30 mg/kg i.p.): 236%
MPE 1.5 hrs. ([2]; 30 mg/kg i.p.): 225%
MPE 3 hrs. ([2]; 30 mg/kg i.p.): 171%
MPE 6 hrs. ([2]; 30 mg/kg i.p.): 34%
ED50 [2, 6]: 5.5 mg/kg
ED100 0.5 hrs [2, 6]: 9.6 mg/kg
inhibition at 0.3 µM (IL-6): 35%
ED50 [3, 5]: 6.5 mg/kg
Analgesia ED100 [3, 5]: 10 mg/kg
MPE 0.5 hrs. ([1]; 3 mg/kg i.p.): 52%
MPE 1.5 hrs. ([1]; 3 mg/kg i.p.): 4%
MPE 0.5 hrs. ([1]; 10 mg/kg i.p.): 67%
MPE 1.5 hrs. ([1]; 10 mg/kg i.p.): 63%
MPE 3 hrs. ([1]; 10 mg/kg i.p.): 29%
MPE 6 hrs. ([1]; 10 mg/kg i.p.): 22%
MPE 24 hrs. ([1]; 10 mg/kg i.p.): 5%
MPE 0.5 hrs. ([1]; 30 mg/kg i.p.): 367%
MPE 1.5 hrs. ([1]; 30 mg/kg i.p.): 368%
MPE 3 hrs. ([1]; 30 mg/kg i.p.): 321%
MPE 6 hrs. ([1]; 30 mg/kg i.p.): 239%
MPE 24 hrs. ([1]; 30 mg/kg i.p.): 60%
ED50 [1]: 5.5 mg/kg
ED100 0.5 hrs [1]: 9.6 mg/kg
ED50 ([4]; Rattus norvegicus, read-out: Oedema Reduction ED50): 97 mg/kg
Oedema Reduction ED30 [4]: 7.3 mg/kg
inhibition at 0.3 µM (COX-2): 20%

c1cn(-c2ccc3nc(-c4ccc5c(c4)OCO5)ncc3c2)cn1 [Example 3, [2-(1,3-benzodioxol-5-yl)-6-(1H-imidazol-1-yl)]quinazoline]
inhibition at 0.3 µM (IL-1β): 20%
inhibition at 1 µM (IL-1β): 15%
inhibition at 10 µM (IL-1β): 40%
MPE 0.5 hrs. ([2]; 3 mg/kg i.p.): 73%
MPE 1.5 hrs. ([2]; 3 mg/kg i.p.): 88%
MPE 3 hrs. ([2]; 3 mg/kg i.p.): 50%
MPE 6 hrs. ([2]; 3 mg/kg i.p.): 24%
MPE 0.5 hrs. ([2]; 10 mg/kg i.p.): 141%
MPE 1.5 hrs. ([2]; 10 mg/kg i.p.): 143%
MPE 3 hrs. ([2]; 10 mg/kg i.p.): 98%
MPE 6 hrs. ([2]; 10 mg/kg i.p.): 49%
MPE 0.5 hrs. ([2]; 30 mg/kg i.p.): 283%
MPE 1.5 hrs. ([2]; 30 mg/kg i.p.): 273%
MPE 3 hrs. ([2]; 30 mg/kg i.p.): 263%
MPE 6 hrs. ([2]; 30 mg/kg i.p.): 264%
ED50 [2, 6]: 2.9 mg/kg
ED100 0.5 hrs [2, 6]: 5.3 mg/kg
inhibition at 0.3 µM (IL-6): 20%
inhibition at 1 µM (IL-6; 1 μM): 35%
ED50 [3, 5]: 2.8 mg/kg
Analgesia ED100 [3, 5]: 5 mg/kg
MPE 0.5 hrs. ([1]; 3 mg/kg i.p.): 54%
MPE 1.5 hrs. ([1]; 3 mg/kg i.p.): 90%
MPE 3 hrs. ([1]; 3 mg/kg i.p.): 32%
MPE 6 hrs. ([1]; 3 mg/kg i.p.): 5%
MPE 0.5 hrs. ([1]; 10 mg/kg i.p.): 216%
MPE 1.5 hrs. ([1]; 10 mg/kg i.p.): 188%
MPE 3 hrs. ([1]; 10 mg/kg i.p.): 85%
MPE 6 hrs. ([1]; 10 mg/kg i.p.): 23%
MPE 24 hrs. ([1]; 10 mg/kg i.p.): 3%
MPE 0.5 hrs. ([1]; 30 mg/kg i.p.): 344%
MPE 1.5 hrs. ([1]; 30 mg/kg i.p.): 198%
MPE 3 hrs. ([1]; 30 mg/kg i.p.): 101%
MPE 6 hrs. ([1]; 30 mg/kg i.p.): 49%
MPE 24 hrs. ([1]; 30 mg/kg i.p.): 41%
ED50 [1]: 2.7 mg/kg
ED100 0.5 hrs [1]: 4.7 mg/kg
Oedema Reduction ED30 [4]: 172 mg/kg
inhibition at 0.3 µM (COX-2): 35%
inhibition at 1 µM (COX-2): 64%
inhibition at 10 µM (COX-2): 75%
IC50 (COX-2; IL-1 stimulated human chondrosarcoma cell line, read-out: IC50 (inhibition of COX-2 production)): 630 nM
